# Publication PMC3582901 (Angewandte Chemie (International ed. in English), 2011)
# Molecular target: DYNLL1 (dynein light chain type 1) (Homo sapiens, UniProt P63167)
# Assay: isothermal titration calorimetry
# Assay type: binding
# Chain of DYNLL1 (dynein light chain type 1) (P63167 whole entry): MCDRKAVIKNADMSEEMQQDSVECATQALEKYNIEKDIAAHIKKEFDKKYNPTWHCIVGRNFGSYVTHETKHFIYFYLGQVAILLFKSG
smiles,measurement,value
"C=C(C)[C@@H](CC[C@]1(C)O[C@@H]([C@](C)(O)[C@@H]2CC[C@H]3O[C@@H]([C@]4(C)CC[C@@H](Br)C(C)(C)O4)CC[C@]3(C)O2)C[C@H]1O)OC [1a, aplysqualenol A]",Kd,840 ± 310 nM
